Values quoted from earlier work, collected in US20160317442A1, “Nanosomal preparation of the complex formed by quercetin (or another flavonol, flavone or a derivative thereof) and 2-hydroxypropyl-beta-cyclodextrin for intravenous use in cerebral pathological conditions” (priority 2013, published 2016).

Conditions: aqueous preparations

detection of quercetin in the brain: not detected
SMILES: O=c1c(O)c(-c2ccc(O)c(O)c2)oc2cc(O)cc(O)c12 [quercetin]
